Measured values as given in paper PMC9881158, “The DEAD-box protein Dbp6 is an ATPase and RNA annealase interacting with the peptidyl transferase center (PTC) of the ribosome” (Nucleic Acids Research, 2023).

Tests used:
Dbp6 [1] = biological target: T1, Dbp6 (Saccharomyces cerevisiae, UniProt P53734); assay: EMSA, effect on Dbp6 binding to hemi-duplex RNA ds38/[…]; details: 0.5-5 mM nucleotide, 0.5 μM protein, 1 nM RNA, MgCl2 2.5 mM, pH 8, 30°C; indirect read-out
T1 construct: full-length ORF, His6 tag (modified pET-15b, pET-Dbp6), kept; E. coli Rosetta λDE3; ca. 73 kDa; size exclusion fraction, mainly monomer / dimer
T1 sequence (P53734 1-629): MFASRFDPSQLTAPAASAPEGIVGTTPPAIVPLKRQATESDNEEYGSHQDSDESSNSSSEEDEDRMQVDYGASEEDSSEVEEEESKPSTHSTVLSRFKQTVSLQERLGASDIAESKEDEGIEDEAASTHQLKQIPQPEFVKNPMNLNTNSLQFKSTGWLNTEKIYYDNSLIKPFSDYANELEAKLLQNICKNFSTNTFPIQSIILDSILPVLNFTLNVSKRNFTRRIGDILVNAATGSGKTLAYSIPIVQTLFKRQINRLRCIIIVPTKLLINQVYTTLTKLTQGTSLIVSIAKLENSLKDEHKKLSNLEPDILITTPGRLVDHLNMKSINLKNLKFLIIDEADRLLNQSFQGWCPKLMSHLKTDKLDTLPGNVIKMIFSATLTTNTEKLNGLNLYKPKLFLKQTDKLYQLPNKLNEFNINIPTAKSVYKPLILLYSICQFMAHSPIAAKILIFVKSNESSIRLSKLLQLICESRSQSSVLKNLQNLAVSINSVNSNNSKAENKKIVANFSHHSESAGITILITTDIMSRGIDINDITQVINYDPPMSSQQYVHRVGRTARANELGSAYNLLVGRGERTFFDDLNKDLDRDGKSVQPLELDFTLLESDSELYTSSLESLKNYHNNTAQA

Dbp6 [2] = biological target: T1, Dbp6; assay: RNA strand annealing assay (ss38-mer / ss58-mer), effect of nucleotide; assay type: biochemical; details: 5 mM ADP, 0.25 μM protein, MgCl2 2.5 mM, pH 8, 30°C; indirect read-out
Dbp6 [3] = biological target: T1, Dbp6; assay: ATPase assay, TLC of [α-32P]-ADP; assay type: biochemical; details: 100 μM ATP, 0.8 μM protein, 2 μM ss58-mer RNA, MgCl2 2.5 mM, pH 8, 30°C; trace E. coli ATPase not excluded by the authors
Dbp6 [4] = biological target: T2, Dbp6 (Saccharomyces cerevisiae, UniProt P53734 1-629); assay: EMSA; high affinity; no nucleotide; EMSA: 1 nM 32P-RNA, RB 1x (composition not in the material), RNasin, 15 min at 30 C, native PAGE in TBE; bridging: 0.8 uM Dbp6, RB 1x, 15 min at 30 C; details: protein: recombinant; tags: N-terminal His6; label: 32P on ss38-mer; 3' overhang 20 nt on strand 1; 38 bp region with one C-C mismatch
T2 sequence: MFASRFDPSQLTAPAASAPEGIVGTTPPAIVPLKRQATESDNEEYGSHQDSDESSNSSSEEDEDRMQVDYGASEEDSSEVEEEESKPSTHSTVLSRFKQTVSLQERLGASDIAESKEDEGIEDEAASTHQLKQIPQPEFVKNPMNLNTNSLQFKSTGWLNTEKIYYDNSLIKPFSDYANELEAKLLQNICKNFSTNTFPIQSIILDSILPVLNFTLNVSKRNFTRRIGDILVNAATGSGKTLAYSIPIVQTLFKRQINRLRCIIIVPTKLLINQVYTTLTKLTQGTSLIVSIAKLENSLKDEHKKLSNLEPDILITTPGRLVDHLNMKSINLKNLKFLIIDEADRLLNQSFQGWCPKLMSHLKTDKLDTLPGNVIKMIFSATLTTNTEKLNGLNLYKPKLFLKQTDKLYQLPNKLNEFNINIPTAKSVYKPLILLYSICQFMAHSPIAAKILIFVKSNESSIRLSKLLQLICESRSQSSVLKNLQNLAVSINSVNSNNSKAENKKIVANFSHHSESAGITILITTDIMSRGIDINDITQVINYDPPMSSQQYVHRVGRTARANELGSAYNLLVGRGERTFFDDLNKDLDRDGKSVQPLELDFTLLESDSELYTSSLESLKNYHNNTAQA

`Nc1ncnc2c1ncn2[C@@H]1O[C@H](COP(=O)(O)OP(=O)(O)OP(O)(O)=S)[C@@H](O)[C@H]1O` [ATPγS] was tested, and the “EMSA, effect on Dbp6 binding to hemi-duplex RNA ds38/58” value (Dbp6 [1]) was “ATPγS had an even stronger effect on Dbp6 binding to the hemi-duplex than ATP”.

With `Nc1ncnc2c1ncn2[C@@H]1O[C@H](COP(=O)(O)OP(=O)(O)O)[C@@H](O)[C@H]1O` [ADP] the “RNA strand annealing assay (ss38-mer / ss58-mer), effect of nucleotide” value (Dbp6 [2]) was “In contrast, ADP addition increased the annealing activity of Dbp6”.

`Nc1ncnc2c1ncn2[C@@H]1O[C@H](COP(=O)(O)OP(=O)(O)OP(=O)(O)O)[C@@H](O)[C@H]1O` [ATP] was tested, and the “ATPase assay, TLC of [α-32P]-ADP” value (Dbp6 [3]) was “This ATPase activity could be attributed to Dbp6”.

B1: ds38/58 hemi-duplex (dsRNA)
RNA 1: GGGAGACCGGAAUUCAUCAUUUCAGUGUAGCGGUUCUGACGUGCAAAUCGAUCGUCGA
RNA 2: CAGAACCGCUACACUGAAAUGAUCAAUUCCGGUCUCCC
B1: binds (Dbp6 [4]).
